Assay results as given in patent US11426397B2, “Piperidinyl- and piperazinyl-substituted heteroaromatic carboxamides as modulators of GPR6” (TAKEDA PHARMACEUTICAL COMPANY LIMITED, priority 2017, dated 2022).

Biological target: T1, GPR6 receptor expressed in CHO-K1 cells (Homo sapiens, UniProt P46095)
T1 construct: expressed in transfected cells
Assay: In vitro inhibition of cAMP (EC50), cell-based HTRF cAMP assay
Conditions: inhibition of constitutive cAMP activity of GPR6 in CHO-K1 cells
Outline: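 Cellular cAMP measured by Lance Ultra HTRF (Eu-cAMP tracer, ULight anti-cAMP), with EC50 fitted by four-parameter logistic. Test compounds sat on cells 45 min, 37 °C, in pH 7.4 Ringer's with 300 μM IBMX and 0.5% BSA; GPR6 in CHO-K1 induced beforehand by doxycycline, 2 μg/mL, 20 h.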

T1 sequence (P46095 whole entry): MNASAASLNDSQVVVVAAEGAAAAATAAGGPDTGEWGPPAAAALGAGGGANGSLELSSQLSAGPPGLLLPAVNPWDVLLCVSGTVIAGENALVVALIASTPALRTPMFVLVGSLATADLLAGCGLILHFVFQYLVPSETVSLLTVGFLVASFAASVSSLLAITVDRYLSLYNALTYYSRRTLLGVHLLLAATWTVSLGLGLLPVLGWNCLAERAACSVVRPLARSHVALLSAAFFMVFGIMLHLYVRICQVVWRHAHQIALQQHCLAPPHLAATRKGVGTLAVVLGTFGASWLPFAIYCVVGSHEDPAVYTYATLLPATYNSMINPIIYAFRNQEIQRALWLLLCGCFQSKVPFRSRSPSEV

Compound | pEC50, in vitro inhibition of cAMP
COc1cccc(S(=O)(=O)C2CCN(c3ccc(C#N)cc3NC(=O)c3cn(C)nc3OC)CC2)c1 [Example 98, N-(5-cyano-2-(4-((3-methoxyphenyl)sulfonyl)piperidin-1-yl)phenyl)-3-methoxy-1-methyl-1H-pyrazole-4-carboxamide] | 6.4
COc1ccc(CN2CCN(c3ccc(C#N)cc3NC(=O)c3cccnc3OC)CC2)nc1 [Example 250, N-(5-cyano-2-(4-((5-methoxypyridin-2-yl)methyl)piperazin-1-yl)phenyl)-2-methoxynicotinamide] | 6.0
Cc1ccc(Cl)c(OC2CCN(c3ncc(C#N)cc3NC(=O)c3ccccn3)CC2)c1 [Example 68, N-(2-(4-(2-chloro-5-methylphenoxy)piperidin-1-yl)-5-cyanopyridin-3-yl)picolinamide] | 6.6
CC(=O)n1ncc2ccc(NC(=O)c3ccccn3)c(N3CCC(Oc4ccc(F)cc4F)CC3)c21 [Example 76, N-(1-acetyl-7-(4-(2,4-difluorophenoxy)piperidin-1-yl)-1H-indazol-6-yl)picolinamide] | <5.7
COc1ncccc1C(=O)Nc1cc(C#N)ccc1N1CCN(Cc2c(F)cccc2Cl)CC1 [Example 71] | 6.5
COc1nn(C)cc1C(=O)Nc1cc(C#N)ncc1N1CCN(Cc2cc(F)c(F)c(F)c2)CC1 [Example 267, N-(2-cyano-5-(4-(3,4,5-trifluorobenzyl)piperazin-1-yl)pyridin-4-yl)-3-methoxy-1-methyl-1H-pyrazole-4-carboxamide] | 6.4
COc1ncccc1C(=O)Nc1cc(C#N)ccc1N1CCN(C(=O)c2ccc(Cl)cc2)CC1 [Example 285, N-(2-(4-(4-chlorobenzoyl)piperazin-1-yl)-5-cyanophenyl)-2-methoxynicotinamide] | 6.9
COc1ncccc1C(=O)Nc1cc(C#N)ccc1N1CCN(Cc2cccc(C#N)c2)CC1 [Example 248, N-(5-cyano-2-(4-(3-cyanobenzyl)piperazin-1-yl)phenyl)-2-methoxynicotinamide] | 6.9
COc1cc(CN2CCN(c3ncc(C#N)cc3NC(=O)c3cn(C)nc3OC)CC2)ccc1F [Example 158, N-(5-cyano-2-(4-(4-fluoro-3-methoxybenzyl)piperazin-1-yl)pyridin-3-yl)-3-methoxy-1-methyl-1H-pyrazole-4-carboxamide] | 6.3
COc1ncccc1C(=O)Nc1cc(C#N)ccc1N1CCN(Cc2ccc(F)cn2)CC1 [Example 244] | 6.3
COc1nn(C)cc1C(=O)Nc1cc(C#N)ncc1N1CCN(Cc2ccc(F)c(F)c2F)CC1 [Example 266, N-(2-cyano-5-(4-(2,3,4-trifluorobenzyl)piperazin-1-yl)pyridin-4-yl)-3-methoxy-1-methyl-1H-pyrazole-4-carboxamide] | 6.8

Second part, the molecule after the results:

pEC50, in vitro inhibition of cAMP | Compound
7.1 | COc1ccc(C(=O)Nc2cc(C#N)ccc2N2CCC(Oc3ccc(F)cc3F)CC2)c(OC)c1 [Example 235, N-(5-cyano-2-(4-(2,4-difluorophenoxy)piperidin-1-yl)phenyl)-2,4-dimethoxybenzamide]
6.9 | Cn1ccc(C(=O)Nc2cc(C#N)ccc2N2CCC(Oc3ccc(F)cc3F)CC2)n1 [Example 42, N-(5-cyano-2-(4-(2,4-difluorophenoxy)piperidin-1-yl)phenyl)-1-methyl-1H-pyrazole-3-carboxamide]
6.8 | Cc1ccc(C(=O)Nc2cc(C#N)ccc2N2CCC(Oc3ccc(F)cc3F)CC2)c(=O)n1C [Example 79, N-(5-cyano-2-(4-(2,4-difluorophenoxy)piperidin-1-yl)phenyl)-1,6-dimethyl-2-oxo-1,2-dihydropyridine-3-carboxamide]
6.8 | COc1nc(Cl)ccc1C(=O)Nc1cc(C#N)ccc1N1CCC(Oc2ccc(F)cc2F)CC1 [Example 191, 6-chloro-N-(5-cyano-2-(4-(2,4-difluorophenoxy)piperidin-1-yl)phenyl)-2-methoxynicotinamide]
7.0 | Cc1nc(C(=O)Nc2cc(C#N)ccc2N2CCC(Oc3ccc(F)cc3F)CC2)cs1 [Example 105]
6.0 | COc1ccc(OC)c(C(=O)Nc2cc(C#N)ccc2N2CCC(Oc3ccc(F)cc3F)CC2)c1 [Example 205, N-(5-cyano-2-(4-(2,4-difluorophenoxy)piperidin-1-yl)phenyl)-2,5-dimethoxybenzamide]
6.4 | CC(C)c1ccc(C(=O)Nc2cc(C#N)ccc2N2CCC(Oc3ccc(F)cc3F)CC2)c(=O)n1C [Example 186]
7.3 | N#Cc1cnc(N2CCC(Oc3ccc(F)cc3F)CC2)c(NC(=O)c2ccccn2)c1 [Example 66, N-(5-cyano-2-(4-(2,4-difluorophenoxy)piperidin-1-yl)pyridin-3-yl)picolinamide]
6.4 | CC(C)n1cccc(C(=O)Nc2cc(C#N)ccc2N2CCC(Oc3ccc(F)cc3F)CC2)c1=O [Example 181, N-(5-cyano-2-(4-(2,4-difluorophenoxy)piperidin-1-yl)phenyl)-1-isopropyl-2-oxo-1,2-dihydropyridine-3-carboxamide]
6.3 | COc1cc(C(F)(F)F)ccc1C(=O)Nc1cc(C#N)ccc1N1CCC(Oc2ccc(F)cc2F)CC1 [Example 194, N-(5-cyano-2-(4-(2,4-difluorophenoxy)piperidin-1-yl)phenyl)-2-methoxy-4-(trifluoromethyl)benzamide]
7.2 | Cn1cccc(C(=O)Nc2cnc(Cl)cc2N2CCC(Oc3ccc(F)cc3F)CC2)c1=O [Example 17, N-(6-chloro-4-(4-(2,4-difluorophenoxy)piperidin-1-yl)pyridin-3-yl)-1-methyl-2-oxo-1,2-dihydropyridine-3-carboxamide]
6.7 | CNC(=O)c1cc(N2CCC(Oc3ccc(F)cc3F)CC2)c(NC(=O)c2cccnc2OC)cn1 [Example 19, 4-(4-(2,4-difluorophenoxy)piperidin-1-yl)-5-(2-methoxynicotinamido)-N-methylpicolinamide]
6.6 | Cc1nccnc1C(=O)Nc1cc(C#N)ccc1N1CCC(Oc2ccc(F)cc2F)CC1 [Example 115, N-(5-cyano-2-(4-(2,4-difluorophenoxy)piperidin-1-yl)phenyl)-3-methylpyrazine-2-carboxamide]
6.8 | Cc1cc(C(=O)Nc2cc(C#N)ccc2N2CCC(Oc3ccc(F)cc3F)CC2)nc(C)n1 [Example 135, N-(5-cyano-2-(4-(2,4-difluorophenoxy)piperidin-1-yl)phenyl)-2,6-dimethylpyrimidine-4-carboxamide]
6.3 | CC(C)n1cc(Br)cc(C(=O)Nc2cc(C#N)ccc2N2CCC(Oc3ccc(F)cc3F)CC2)c1=O [Example 182, 5-bromo-N-(5-cyano-2-(4-(2,4-difluorophenoxy)piperidin-1-yl)phenyl)-1-isopropyl-2-oxo-1,2-dihydropyridine-3-carboxamide]
<5.7 | COc1nccnc1C(=O)Nc1cc(C#N)ccc1N1CCC(Oc2ccc(F)cc2F)CC1 [Example 94, N-(5-cyano-2-(4-(2,4-difluorophenoxy)piperidin-1-yl)phenyl)-3-methoxypyrazine-2-carboxamide]
